Measurements as given in patent US6110939A, “(Benzimidazolyl- and imidazopyridinyl) containing 1-(1,2-disubstituted piperidinyl) derivatives” (Janssen Pharmaceutica N.V., priority 1995, dated 2000).

Tested on: substance P induced relaxation of the pig coronary arteries
Assay: Antagonism of substance P induced relaxation of the pig coronary arteries
Type: cell-based
Details: response to 10^-9 M substance P, 30 min incubation; for % inhibition / inhibition at 0.03 µM: test compound 3 × 10^-8; for inhibition at 0.003 µM: test compound 3 × 10^-9
Experimental: Antagonism of substance P induced relaxation of the pig coronary arteries
Segments of coronary arteries taken from pigs (killed by injection of an overdose of sodium pentobarbital) were inverted and mounted for recording of isometric tension in organ baths (volume 20 ml) with the endothelium at the outside. The preparations were bathed in Krebs - Henseleit solution. The solution was kept at 37° C. and gassed with a mixture of O2 /CO2 (95/5). After stabilisation of the preparations, prostaglandin F2α (10^-5 M) was administered to induce a contraction. This was repeated until contractile responses became stable. Then prostaglandin F2α was again administered and substance P (3×10^-10 M and 10^-9 M cumulatively) was added. […] After washing away the agonists, a known concentration of a compound of formula (I) was added. After an incubation period of 30 minutes, prostaglandin F2α (10^-5 M) and the same concentrations of substance P as described above were again administered in the presence of the compound to be tested.

## CCOCCn1c(NC2CCN(C3CCN(C(=O)c4cc(C(F)(F)F)cc(C(F)(F)F)c4)C(Cc4ccccc4)C3)C(Cc3ccccc3)C2)nc2ccccc21 (stereo not drawn) [Compound 13, 2α,4α-trans-1-[3,5-bis(trifluoromethyl)benzoyl]-4-[4-[[1-(2-ethoxyethyl)-1H-benzimidazol-2-yl]amino]-2-(phenylmethyl)-1-piperidinyl]-2-(phenylmethyl)piperidine]
  % inhibition: 19.9%

## O=C(c1cc(C(F)(F)F)cc(C(F)(F)F)c1)N1CC[C@@H](N2CCC(Oc3nc4ccccc4n3Cc3ccc(F)cc3)CC2)C[C@@H]1Cc1ccccc1 (relative stereo) [Compound 25]
Sus scrofa, 0.5 h
  inhibition at 0.03 µM: 100%

## O=C(c1cc(C(F)(F)F)cc(C(F)(F)F)c1)N1CC[C@H](N2CCC(Nc3nc4ccccc4n3Cc3ccc(F)cc3)CC2)C[C@@H]1Cc1ccccc1 (relative stereo) [Compound 26]
Sus scrofa, 0.5 h
  inhibition at 0.03 µM: 82.2%

## CCOCCn1c(N[C@@H]2CCN(C(=O)c3cc(C(F)(F)F)ccc3C(F)(F)F)[C@H](Cc3ccc(Cl)cc3)C2)nc2ccccc21 (relative stereo) [Compound 145]
Sus scrofa, 0.5 h
  inhibition at 0.003 µM: 92.2%

## Cc1cc(C)cc(C(=O)N2CC[C@@H](N3CCC(Nc4nc5ccccc5n4Cc4ccc(C)o4)CC3)C[C@@H]2Cc2ccccc2)c1 (relative stereo) [Compound 32]
Sus scrofa, 0.5 h
  inhibition at 0.003 µM: 20.1%

## O=C(c1cc(C(F)(F)F)cc(C(F)(F)F)c1)N1CC[C@@H](N2CCC(Nc3nc4ccccc4n3Cc3ccc(CO)o3)CC2)C[C@H]1Cc1ccccc1 (relative stereo) [Compound 44]
Sus scrofa, 0.5 h
  inhibition at 0.03 µM: 91.5%

## Cc1ncc(Cn2c(NC3CCN([C@@H]4CCN(C(=O)c5cc(Cl)cc(Cl)c5)[C@@H](Cc5ccccc5)C4)CC3)nc3ccccc32)o1 (relative stereo) [Compound 55]
Sus scrofa, 0.5 h
  inhibition at 0.003 µM: 28.1%

## CCOCCn1c(NC2CCN([C@@H]3CCN(C(=O)c4cc(C(F)(F)F)cc(C(F)(F)F)c4)[C@@H](Cc4ccccc4)C3)CC2)nc2ccccc21 (relative stereo) [Compound 6, (±)-trans-1-[1,3-bis(trifluoromethyl)-benzoyl]-4-[4-[[1-(2-ethoxyethyl)-1H-benzimidazol-2-yl]amino]-1-piperidinyl]-2-(phenylmethyl)piperidine]
Sus scrofa, 0.5 h
  inhibition at 0.03 µM: 85.3%

## Cc1ncc(Cn2c(N[C@@H]3CCN(C(=O)c4ccc5ccccc5c4)[C@@H](Cc4ccccc4)C3)nc3ccccc32)o1 (relative stereo) [Compound 45]
Sus scrofa, 0.5 h
  inhibition at 0.003 µM: 13.1%

## Cc1ccc(Cn2c(CC3CCN([C@@H]4CCN(C(=O)c5cc(C(F)(F)F)cc(C(F)(F)F)c5)[C@@H](Cc5ccccc5)C4)CC3)nc3ccccc32)o1 (relative stereo) [Compound 41]
Sus scrofa, 0.5 h
  inhibition at 0.003 µM: 82.6%

## Cc1cc(C)cc(C(=O)N2CC[C@H](N3CCC(Nc4nc5ccccc5n4Cc4cccs4)CC3)C[C@@H]2Cc2ccccc2)c1 (relative stereo) [Compound 7]
Sus scrofa, 0.5 h
  inhibition at 0.03 µM: 54%

## CCOCCn1c(NC2CCN([C@@H]3CCN(C(=O)c4cc(C)cc(C)c4)[C@@H](Cc4ccccc4)C3)CC2)nc2ccccc21 (relative stereo) [Compound 2]
Sus scrofa, 0.5 h
  inhibition at 0.03 µM: 41.1%

## Cc1ncc(Cn2c(NC3CCN([C@@H]4CCN(C(=O)c5cc(C(F)(F)F)cc(C(F)(F)F)c5)[C@@H](Cc5ccccc5)C4)CC3)nc3ccccc32)o1 (relative stereo) [Compound 16]
Sus scrofa, 0.5 h
  inhibition at 0.03 µM: 88.8%

## Cc1cc(C)cc(C(=O)N2CC[C@H](N3CCC(Nc4nc5ccccc5n4Cc4ccccc4F)CC3)C[C@@H]2Cc2ccccc2)c1 (relative stereo) [Compound 3]
Sus scrofa, 0.5 h, test compound 3 × 10^-7
  inhibition at 0.3 µM: 35.2%

## CCOCCn1c(NC2CCN(C3CCN(C(=O)c4cc(C(F)(F)F)cc(C(F)(F)F)c4)C(Cc4ccccc4)C3)C(Cc3ccccc3)C2)nc2ccccc21 (stereo not drawn) [Compound 14, 2α,4β-trans-1-[3,5-bis(trifluoromethyl)benzoyl]-4-[4-[[1-(2-ethoxyethyl)-1H-benzimidazol-2-yl]amino]-2-(phenylmethyl)-1-piperidinyl]-2-(phenylmethyl)piperidine]
  % inhibition: 53.3%

## CCOCCn1c(NC2CCC(Cc3ccccc3)N(C(=O)c3cc(C(F)(F)F)cc(C(F)(F)F)c3)CC2)nc2ccccc21 (stereo not drawn) [Compound 150]
Sus scrofa, 0.5 h
  inhibition at 0.03 µM: 98.1%

## Cc1ncc(Cn2c(OC3CCN([C@@H]4CCN(C(=O)c5cc(C(F)(F)F)cc(C(F)(F)F)c5)[C@@H](Cc5ccccc5)C4)CC3)nc3ccccc32)o1 (relative stereo) [Compound 37]
Sus scrofa, 0.5 h
  inhibition at 0.003 µM: 70.5%

## Cc1ncc(Cn2c(NC3CCN([C@@H]4CCN(C(=O)c5sc(C)nc5C)[C@H](Cc5ccccc5)C4)CC3)nc3ccccc32)o1 (relative stereo) [Compound 65]
Sus scrofa, 0.5 h
  inhibition at 0.003 µM: 9.7%

## CCOCCn1c(N[C@@H]2CCN(C(=O)c3cc(C(F)(F)F)cc(C(F)(F)F)c3)[C@H](Cc3ccc(C(F)(F)F)cc3)C2)nc2ccccc21 (relative stereo) [Compound 146]
Sus scrofa, 0.5 h
  inhibition at 0.003 µM: 51.8%

## Cc1ccc(Cn2c(CC3CCN([C@@H]4CCN(C(=O)c5cc(C(F)(F)F)cc(C(F)(F)F)c5)[C@H](Cc5ccccc5)C4)CC3)nc3ccccc32)o1 (relative stereo) [Compound 42]
Sus scrofa, 0.5 h
  inhibition at 0.03 µM: 96.9%

## CCOCCn1c(NC2CCN([C@H]3CCN(C(=O)c4cc(C(F)(F)F)cc(C(F)(F)F)c4)[C@@H](Cc4ccccc4)C3)CC2)nc2ccccc21 (relative stereo) [Compound 5]
Sus scrofa, 0.5 h
  inhibition at 0.03 µM: 80.7%

## Cc1ccc(Cn2c(NC3CCN([C@@H]4CCN(C(=O)c5cc(C(F)(F)F)cc(C(F)(F)F)c5)[C@@H](Cc5ccccc5)C4)CC3)nc3cccnc32)o1 (relative stereo) [Compound 20]
Sus scrofa, 0.5 h
  inhibition at 0.003 µM: 68.9%

## Cc1ncc(Cn2c(NC3CCN([C@@H]4CCN(C(=O)Nc5cc(C(F)(F)F)cc(C(F)(F)F)c5)[C@@H](Cc5ccccc5)C4)CC3)nc3ccccc32)o1 (racemic) [Compound 52, (±)-trans-N-[3,5-bis(trifluoromethyl)phenyl]-4-[4-[[1-[(2-methyl-5-oxazolyl)methyl]-1H-benzimidazol-2-yl]amino]-1-piperidinyl]-2-(phenylmethyl)-1-piperidinecarboxamide]
Sus scrofa, 0.5 h
  inhibition at 0.003 µM: 6.3%

## O=C(c1cc(C(F)(F)F)cc(C(F)(F)F)c1)N1CC[C@@H](N2CCC(Sc3nc4ccccc4n3Cc3ccc(F)cc3)CC2)C[C@@H]1Cc1ccccc1 (relative stereo) [Compound 35]
Sus scrofa, 0.5 h
  inhibition at 0.03 µM: 88.5%

## CCOCCn1c(NC2CCN([C@H]3CCN(C(=O)c4cc(C)cc(C)c4)[C@@H](Cc4ccccc4)C3)CC2)nc2ccccc21 (relative stereo) [Compound 1]
Sus scrofa, 0.5 h
  inhibition at 0.03 µM: 15%

## Cc1nc(C)c(Cn2c(NC3CCN([C@H]4CCN(C(=O)c5cc(C(F)(F)F)cc(C(F)(F)F)c5)[C@@H](Cc5ccccc5)C4)CC3)nc3cccnc32)o1 (relative stereo) [Compound 17]
Sus scrofa, 0.5 h
  inhibition at 0.03 µM: 94.5%

## Cc1ccc(Cn2c(NC3CCN([C@@H]4CCN(C(=O)c5cc(C(F)(F)F)cc(C(F)(F)F)c5)[C@H](Cc5ccccc5)C4)C3)nc3cccnc32)o1 (stereo partly drawn) [Compound 30]
Sus scrofa, 0.5 h
  inhibition at 0.03 µM: 87.5%

## Cc1ccc(Cn2c(NC3CCN([C@H]4CCN(C(=O)c5cc(C(F)(F)F)cc(C(F)(F)F)c5)[C@@H](Cc5ccccc5)C4)CC3)nc3cccnc32)o1 (relative stereo) [Compound 19]
Sus scrofa, 0.5 h
  inhibition at 0.003 µM: 79.5%

## Cc1ccc(Cn2c(NC3CCN([C@@H]4CCN(C(=O)c5cc(C(F)(F)F)cc(C(F)(F)F)c5)[C@@H](Cc5ccccc5)C4)C3)nc3cccnc32)o1 (stereo partly drawn) [Compound 31]
Sus scrofa, 0.5 h
  inhibition at 0.003 µM: 90.6%

## Cc1cc(C)cc(C(=O)N2CC[C@@H](N3CCC(Nc4nc5ccccc5n4Cc4ccccc4F)CC3)C[C@@H]2Cc2ccccc2)c1 (relative stereo) [Compound 4]
Sus scrofa, 0.5 h
  inhibition at 0.03 µM: 10.2%

## Cc1nc(C)c(Cn2c(NC3CCN([C@@H]4CCN(C(=O)c5cc(C(F)(F)F)cc(C(F)(F)F)c5)[C@@H](Cc5ccccc5)C4)CC3)nc3cccnc32)o1 (relative stereo) [Compound 18]
Sus scrofa, 0.5 h
  inhibition at 0.003 µM: 73.7%

## O=C(c1cc(C(F)(F)F)cc(C(F)(F)F)c1)N1CC[C@@H](N2CCC(Nc3nc4ccccc4n3Cc3ccc(CO)o3)CC2)C[C@@H]1Cc1ccccc1 (relative stereo) [Compound 43]
Sus scrofa, 0.5 h
  inhibition at 0.03 µM: 85.2%

## CCOCCn1c(N[C@@H]2CCN(C(=O)c3cc(C(F)(F)F)ccc3C(F)(F)F)[C@@H](Cc3ccc(Cl)cc3)C2)nc2ccccc21 (relative stereo) [Compound 144]
Sus scrofa, 0.5 h
  inhibition at 0.003 µM: 88.4%

## Cc1ccc(Cn2c(C(O)C3CCN([C@H]4CCN(C(=O)c5cc(C(F)(F)F)cc(C(F)(F)F)c5)[C@@H](Cc5ccccc5)C4)CC3)nc3ccccc32)o1 (stereo partly drawn) [Compound 21]
Sus scrofa, 0.5 h
  inhibition at 0.03 µM: 95.8%

## Cc1cc(C)cc(C(=O)N2CC[C@H](N3CCC(Nc4nc5ccccc5n4Cc4cscn4)CC3)C[C@@H]2Cc2ccccc2)c1 (relative stereo) [Compound 9]
Sus scrofa, 0.5 h
  inhibition at 0.03 µM: 78.1%

## CCOCCn1c(NC2CCCN(C(=O)c3cc(C(F)(F)F)cc(C(F)(F)F)c3)C(Cc3ccccc3)C2)nc2ccccc21 (stereo not drawn) [Compound 149]
Sus scrofa, 0.5 h
  inhibition at 0.03 µM: 12.7%

## Cc1cc(C)cc(C(=O)N2CC[C@@H](N3CCC(Cc4nc5ccccc5n4Cc4csc(C)n4)CC3)C[C@@H]2Cc2ccccc2)c1 (relative stereo) [Compound 12]
Sus scrofa, 0.5 h
  inhibition at 0.03 µM: 92.3%

## Cc1ccc(Cn2c(NC3CCN([C@@H]4CCN(C(=O)c5cc(C(F)(F)F)cc(C(F)(F)F)c5)[C@@H](Cc5ccccc5)C4)CC3)nc3ccccc32)o1 (relative stereo) [Compound 29]
Sus scrofa, 0.5 h
  inhibition at 0.03 µM: 65.6%

## Cc1ccc(Cn2c(C(O)C3CCN(C4CCN(C(=O)c5cc(C(F)(F)F)cc(C(F)(F)F)c5)C(Cc5ccccc5)C4)CC3)nc3ccccc32)o1 (stereo not drawn) [Compound 23]
Sus scrofa, 0.5 h
  inhibition at 0.003 µM: 94.3%
